Key:
α1A adrenergic receptor = target: T1, α1A adrenergic receptor (Homo sapiens, UniProt P35348); experiment: α1A adrenergic receptor antagonist assay (calcium mobilization, CHO cells); format: cell-based; settings: epinephrine 3 nM; calcium mobilization; read-out: Antagonism IC50 α1A
T1 construct: host or cells: CHO cells
T1 sequence (P35348 1-466): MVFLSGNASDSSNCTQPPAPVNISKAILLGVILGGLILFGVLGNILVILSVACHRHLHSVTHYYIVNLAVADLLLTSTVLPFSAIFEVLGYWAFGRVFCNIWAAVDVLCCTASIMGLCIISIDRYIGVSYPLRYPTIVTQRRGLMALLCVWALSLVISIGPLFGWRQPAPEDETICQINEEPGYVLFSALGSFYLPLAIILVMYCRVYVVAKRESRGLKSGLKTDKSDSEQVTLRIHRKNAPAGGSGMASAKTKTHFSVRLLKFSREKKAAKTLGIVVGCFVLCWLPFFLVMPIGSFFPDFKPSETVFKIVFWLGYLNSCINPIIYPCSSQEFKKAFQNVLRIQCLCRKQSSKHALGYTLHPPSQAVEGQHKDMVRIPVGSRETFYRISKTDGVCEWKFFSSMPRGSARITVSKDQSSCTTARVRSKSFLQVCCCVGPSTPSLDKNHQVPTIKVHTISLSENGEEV
Protocol: (§1) α1 Adrenergic and Dopamine D2 Receptors. Methods: Binding and functional assays for α1 adrenergic and dopamine D2 receptors were performed by Eurofins Cerep according to their methods.
Antagonist activity. The antagonistic effects of test compounds on the α1A and α1B adrenergic receptors were measured using human receptor-transfected Chinese hamster ovary (CHO) cells. Antagonist activity was determined by measuring compound effect on agonist (epinephrine)-induced calcium mobilization in the α1A receptor assay or cAMP levels in the α1B receptor assay. In these experiments, CHO cells were incubated in duplicate at room temperature with test article and epinephrine at 3 nM in the α1A receptor assays or at 3000 nM in the α1B receptor assay. Compound A was tested in the α1A receptor assay at 0.01-30 μM. […] Compound 1 and Compound 2 were assayed at 0.03 to 30 μM in the α1A receptor assay and 0.03 to 100 μM in the α1B receptor assay. In the α1A receptor assay, cytosolic calcium levels were measured fluorometrically using the fluorescent probe, Fluo4 Direct. Intracellular cAMP levels in the α1B adrenergic receptor assay were measured by homogenous time-resolved fluorescence (HTRF). The antagonism IC50 was defined as the concentration causing a half-maximum inhibition of control agonist response.

dopamine D2S receptor [1] = target: T2, dopamine D2S receptor (Homo sapiens, UniProt P14416); experiment: Dopamine D2S receptor radioligand binding (HEK-293)
T2 construct: host or cells: HEK-293 cells (membrane homogenates)
T2 sequence (P14416 1-414 isoform P14416-2): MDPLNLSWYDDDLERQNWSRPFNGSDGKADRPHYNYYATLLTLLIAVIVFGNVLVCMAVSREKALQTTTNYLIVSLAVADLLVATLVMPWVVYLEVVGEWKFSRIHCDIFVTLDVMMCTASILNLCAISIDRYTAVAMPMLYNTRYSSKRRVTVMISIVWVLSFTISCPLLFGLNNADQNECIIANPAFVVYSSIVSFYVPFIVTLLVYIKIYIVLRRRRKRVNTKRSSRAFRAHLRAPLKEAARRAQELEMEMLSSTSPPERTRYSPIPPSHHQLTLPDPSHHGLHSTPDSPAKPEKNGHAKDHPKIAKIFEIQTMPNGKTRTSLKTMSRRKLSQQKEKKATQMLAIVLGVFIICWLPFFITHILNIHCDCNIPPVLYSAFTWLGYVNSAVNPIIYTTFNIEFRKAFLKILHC
Protocol: as §1
Dopamine D2 Receptor. Binding at 10 μM. The binding assay evaluated the affinity of test articles for the dopamine D2 receptor in transfected human embryonic kidney (HEK)-293 cells. For determining the binding in the D2S receptor assay, test article was incubated with 0.3 nM [^3H] methylspiperone or 1 nM [^3H] 7-hydroxy-2-N,N-dipropylaminotetralin (7-OH-DPAT). [3H] Methylspiperone at 0.3 nM also was used as control ligand in the D2L binding assay. Cell membrane homogenates were incubated in duplicate at room temperature for 60 minutes with ligand in the absence or presence of test articles at 10 μM. After the incubation period, samples were filtered through glass fiber filters, the filters dried and then counted for radioactivity using a scintillation counter. Results are expressed as mean percent inhibition of control radioligand binding.
Binding IC50. To determine the binding IC50 in the D2 receptor assays, HEK-293 were tested as described above but with varying concentrations of test article. Compound A was tested at 0.01-30 μM in the D2S radioligand binding assay. […] Compound 1 was assayed at 0.03-100 μM in both the D2S and D2L assays, while Compound 2 was tested at 0.03-100 μM in the D2S assay and 0.01-100 μM in the D2L assays. The IC50 was defined as the concentration causing a half-maximum inhibition of control specific binding.

dopamine D2S receptor [2] = target: T2, dopamine D2S receptor; experiment: Dopamine D2S receptor agonist assay (impedance, HEK-293); format: cell-based; settings: impedance; versus dopamine control; read-out: D2S Agonism EC50
Protocol: as §1
Agonist activity. The agonism of test compounds on the dopamine D2S receptor was assessed using human receptor-transfected HEK-293 cells. Agonist activity was determined by measuring compound effect on impedance modulation. In these experiments, HEK-293 cells were incubated in duplicate at 28° C. with test article. Compound A was tested at 0.01-30 μM. […] Dopamine (3 μM) was used as an agonist control. Impedance measurements were monitored for 10 minutes after ligand addition using cellular dielectric spectroscopy. The EC50 was defined as the concentration causing a half-maximum response, compared to the control agonist (dopamine) response.

in vivo = settings: rat
Protocol: 7-Day Exploratory Toxicology Studies in Male Rats. Methods. Male CD-IGS rats (n=5/group for toxicologic assessment; n=4/group for toxicokinetic assessment) were dosed once daily by oral gavage (10 mL/kg) with vehicle (0.5% HPMC/0.25% Tween-80 in 50 mM citrate, pH 2.6-2.8) or test articles (Compound A or Compound 1) at 100, 300 or 1000 mg/kg/day for 7 consecutive days. Blood samples for toxicokinetics were collected on Days 1 and 7. […] Body weight was recorded at randomization, prior to dosing on Days 1-7 and prior to necropsy. Samples for hematology and serum chemistry analyses were collected on Day 8, approximately 24 h after the last dose. Rats were euthanized on Day 8 for necropsy. Anatomic pathology evaluation consisted of gross observation, organ weight and histopathologic examination of select tissues.

[3] = tested on: non-selective α1 adrenergic receptor; experiment: α1 adrenergic receptor radioligand binding ([3H]prazosin); settings: rat cerebral cortex
Protocol: as §1
α1 Adrenergic Receptor. Binding at 10 μM. The binding assay evaluated the affinity of test article for the non-selective α1 adrenergic receptor in rat cerebral cortex. Membrane homogenates of cerebral cortex were incubated in duplicate for 60 minutes at room temperature with 0.25 nM [^3H]prazosin in the absence or presence of test articles at 10 μM. After the incubation period, samples were filtered through glass fiber filters, the filters dried and then counted for radioactivity using a scintillation counter. Results are expressed as mean percent inhibition of control radioligand binding.
Binding IC50. […] Compound A was tested at 0.01-30 μM. […] Compound 1 and Compound 2, the S-enantiomer of Compound 1, were assayed at 0.03-100 μM. Radioactivity was measured as described above. The IC50 was defined as the concentration causing a half-maximum inhibition of control specific binding.

[4] = tested on: neutrophil progenitors (BM CD34+ cells from healthy donors); experiment: In vitro maturation of neutrophil progenitors, dexamethasone alone and with Compound 2
Protocol: Methods. To understand the effects of dexamethasone on neutropenia, in vitro cultures of BM CD34^+ cells from healthy donors were used to evaluate the neutropenic events mediated by dexamethasone as a single agent and in combination with Compound 2. To define the effects of dexamethasone monotherapy in this model, 1, 10, or 100 nM dexamethasone exposure was maintained for 30 h comparing 7 different dosing schedules (FIG. 11). For combination studies, single exposure Compound 2 (1, 10, or 100 nM) and dexamethasone were maintained for 6 and 30 h, respectively, starting at Day 13 of culture.

[5] = tested on: lenalidomide-resistant NCI-H929 (H929-1051) multiple myeloma/plasmacytoma tumors; experiment: H929-1051 xenograft, Compound 2 alone and with dexamethasone; format: in vivo, mouse; settings: single agent dexamethasone 0.5 mg/kg oral once daily
[6] = tested on: multiple myeloma and plasma cell leukemia cell lines (OPM2.P10, RPMI.8226, L363, JJN-3); experiment: Combination with proteasome inhibitor pulse (flow cytometry, 72 h); format: cell-based, human; settings: L363; 1 h pulse
Protocol: Twenty four hours prior to treatment with a proteasome inhibitor and test compound, an appropriate number of cells were split to a concentration of 0.2×10^6/mL in fresh media to allow for exponential growth. On the day of treatment, compounds were freshly solvated in DMSO. Proteasome inhibitors bortezomib or carfilzomib were diluted and added to pre-warmed culture media at the final working concentrations of 150 nM or 300 nM for bortezomib and 300 nM or 550 nM for carfilzomib. Proteasome inhibitor concentrations were determined based upon clinical Cmax concentrations as well as previous studies in each cell line which determined the duration and concentration of PI required to inhibit a specific amount of β5 proteasome activity. Cells were counted and an appropriate number were placed into media containing proteasome inhibitor and thoroughly mixed. After incubation for 1 h at 37° C., 5% CO2, cells were washed two times with 40 mL of complete media to remove the proteasome inhibitor. […] Plated cells were cultured at 37° C., 5% C02, for the remainder of the experiment, up to 72 h. Every 24 h, proteasome inhibition was monitored by the Cell-Based Proteasome-Glo Assay. Proliferation and apoptosis were measured at 72 h by flow cytometry. Cells were stained with APC Annexin-V and 7-AAD to enumerate the number of viable cells remaining in culture.
An in vitro cell assay was established in order to mimic the clinical pharmacokinetics (PK) and pharmacodynamics (PD) of exposure to proteasome inhibitors bortezomib and carfilzomib.

[7] = tested on: lenalidomide-resistant NCI-H929 (H929-1051) multiple myeloma/plasmacytoma tumors; experiment: H929-1051 xenograft, Compound 2 alone and with bortezomib; format: in vivo, mouse

Work on `O=C1CCC(N2Cc3c(OCc4ccc(CN5CCN(c6ccc(F)cc6F)CC5)cc4)cccc3C2=O)C(=O)N1` (racemic) [Compound A, 3-(4-((4-((4-(2,4-difluorophenyl)piperazin-1-yl)methyl)benzyl)oxy)-1-oxoisoindolin-2-yl)piperidine-2,6-dione] yielded an IC50 (α1A adrenergic receptor) of 14 nM, an IC50 (dopamine D2S receptor [1]; read-out: D2S Binding IC50) of 150 nM and an inhibition at 10 µM (dopamine D2S receptor [1]; read-out: Dopamine D2S % Inhibition (10 μM)) of 99%. The EC50 (dopamine D2S receptor [2]) was 16 nM, the AUC(0-t) (in vivo; male, CD-IGS, po, 100 mg/kg/day) was 441 µM·h and the AUC(0-t) (in vivo; male, CD-IGS, po, 300 mg/kg/day) was 1230 µM·h. The AUC(0-t) (in vivo; male, CD-IGS, po, 1000 mg/kg/day) was 1760 µM·h, the “dose at which abnormal stomach content (dry, feed material) was observed grossly” value (in vivo; male, CD-IGS, po, 7 days) was at least 100 mg/kg and the “dose at which clinical signs of toxicity (hunched posture, piloerection, decreased activity) and decreased body weight were observed” value (in vivo; male, CD-IGS, po, 7 days) was at least 300 mg/kg. The “test article-related microscopic findings” value (in vivo) was “minimal multifocal myocardial necrosis and mixed cell infiltration in hearts of rats at all dose levels”, the “Adrenergic α1 (non-selective) % Inhibition (10 μM)” value ([3]; 10 μM, 0.25 nM [3H]prazosin) was 102% and the IC50 ([3]; [3H]prazosin) was 64 nM.

With `C[C@@H]1C[C@H]2[C@@H]3CCC4=CC(=O)C=C[C@]4(C)[C@@]3(F)[C@@H](O)C[C@]2(C)[C@@]1(O)C(=O)CO` [Dexamethasone, dexamethasone] the “viability of immature and mature neutrophils” value ([4]; alone or in combination) was “not affected”, the “maturation of neutrophil progenitors / late-stage neutrophil precursors” value ([4]; single agent, 1, 10, 100 nM, dexamethasone 30 h, Compound 2 6 h) was “not affected” and the “tumor growth inhibition / tumor volume reduction (TVR)” value [5] was 20%.

With `CC(C)C[C@H](NC(=O)[C@H](Cc1ccccc1)NC(=O)c1cnccn1)B(O)O` [bortezomib] the “single agent activity on cell viability” value [6] was “no single agent activity on cell viability”, the “tumor growth inhibition / tumor volume reduction (TVR)” value ([7]; single agent bortezomib 1 mg/kg iv single dose day 31, day 50) was 60% and the “day by which tumors reached approximately 2000 mm^3” value ([7]; single agent, 1 mg/kg) was 66 days.
